According to patent publication US20220326219A1, “METHODS AND DEVICE FOR THE ANALYSIS OF TISSUE SAMPLES” (PRECOMB THERAPEUTICS AG, priority 2019, published 2022):

Tests used:
[1] = system: living, perfused microvessels (vasculature) of in vitro vascularized microtumors; details: VMT platform, Sobrino et al. 2016; cited from earlier work
[2] = system: pancreatic patient-derived xenograft; assay: In vivo efficacy in pancreatic patient-derived xenograft (PDX-mouse model); details: average response of 5 individual animals
Experimental: To compare whether the in vitro efficacy analysis is matching in vivo (mouse) efficacy drug response data as obtained, pancreatic patient-derived xenograft (PDX-mouse model) and pancreatic microtumors derived from PDX tumor tissue were generated. Two single drugs (Gemcitabine and Abraxane) and two drug combinations (Gemcitabine:Erlotinib and Gemcitabine:Abraxane) were tested. In vivo data points reflect the average response of 5 individual animals.

[3] = system: pancreatic pdx microtumors 12558; assay: Drug efficacy on PDX-derived pancreatic microtumors by tumor growth kinetics over 11 days; assay type: cell-based; details: drugs at cmax values in vivo, 11 days monitoring

Compound | effect on vasculature of vascularized microtumors [1] | in vivo (mouse) efficacy drug response [2] | drug efficacy on microtumors (t11/t0 and t11treated/t11control) [3]
N#CC1(c2ccc(NC(=O)c3cccnc3NCc3ccncc3)cc2)CCCC1 [Apatinib] | not effective | – | –
Nc1ccn([C@@H]2O[C@H](CO)[C@@H](O)C2(F)F)c(=O)n1 [Gemcitabine] | – | highest efficacy | highest efficacy
O=C1[O][Pt]2([NH][C@@H]3CCCC[C@H]3[NH]2)[O]C1=O [Oxaliplatin] | – | – | least effective
